Assay results from patent US20060019922A1, “Selective killing of cancerous cells” (The University of North Carolina, priority 2004, published 2006).

Legend:
HEK 293 cells = experiment: GCV sensitivity assay (luciferase) in transfected HEK 293 cells; assay type: cell-based, human; conditions: HEK 293 cells with TK, K2-5F and p53 vectors vs TK vector only or TK plus K2-5F vector
Description: FIG. 6 is a graphical representation of regulation of the response to GCV by p53-induced K2-5F. Cells (HEK 293) were co-transfected with the following plasmids: pRL-2MDR-TKp-TK and pFR-2p21-K2-5F (Δ); pRL-2MDR-TKp-TK, pFR-2p21-K2-5F, and pCMV-P53-Myc (∇); or pRL-2MDR-TKp-TK and pcK2-5F (◯). The total DNA amount was adjusted by pcDNA3.1A and/or PRL-TK. A ratio of 1:20:1 between pRL-2MDR-TKp-TK, pFR-2p21-K2-5F, and pCMV-P53-Myc was used. (□) represents cells transfected with both control vectors. After twenty-four hours, cells in each well were replated uniformly into six-well plates, and after another twenty four hours, GCV was administered in varying concentrations. Luciferase activities were measured after four days of treatment with GCV. Results are expressed as a percentage of the luciferase activities at 0 GCV.
(§1) Cells were seeded in twelve-well plates and transfected as described above. […] After four days of treatment, cells were lysed, and luciferase activities or β-galactosidase activities were measured according to the manufacturer's protocol (Promega Corp., Madison, Wis., United States of America). Cell viability was estimated by luciferase activity or β-galactosidase activity, with results expressed as a percentage of the activity in the absence of GCV. […]

Saos-2/p53+ cells = experiment: Colony-formation assay with GCV in Saos-2/p53-positive cells; assay type: cell-based, human; conditions: Saos 2/p53-positive cells co-transfected with pRL-2MDR-TKp-TK; especially at higher GCV concentrations
Description: (§2) FIGS. 9A and 9B depict regulation of the response to GCV by K2-5F induced by endogenous p53. Saos-2/p53-negative (FIG. 9A) and Saos-2/p53-positive (FIG. 9B) cells were co-transfected with plasmid pRL-2MDR-TKp-TK without (black bars) or with (gray bars) co-transfection of pFR-2p21-K2-5F. White bars represent cells transfected with empty vectors. All cells were also transfected with a β-galactosidase-expressing plasmid. After twenty-four hours, 600 cells were re-plated in 10-cm plates, and after another twenty-four hours, GCV was administered in varying concentrations. After ten days, surviving blue colonies larger than 50 cells were counted. Survival was expressed as a percentage of colonies formed at 0 GCV. […] The x-axis indicates the concentration of GCV in micromoles. The y-axis indicates the percentage of cell survival compared with cells not treated with GCV.
(§3) Cells were transfected with the plasmids indicated, along with a β-galactosidase-expressing plasmid to mark the transfected cells. […] After 10 days, surviving blue (β-galactosidase-positive) colonies larger than 50 cells were counted. Survival was expressed as a percentage of colonies formed at 0 GCV.
(§4) The pharmacological effect of K2-5F induced by endogenous p53 in stably transfected Saos-2 cells was investigated. […] The cells were then treated with GCV, and cell viability was evaluated with the use of a colony-formation assay. […]

HEK 293T cells = experiment: GCV sensitivity assay (luciferase or β-galactosidase activity as cell viability) in transfected HEK 293T cells; assay type: cell-based; conditions: Homo sapiens, 96 h, four days of GCV
Description: FIG. 4 is a graphical representation of regulation of the response to GCV by constitutively expressed K2-5F. Cells (HEK 293T) were co-transfected with equal amounts of the following plasmids: pRL-2MDR-TKp-TK and pcDNA3.1A (Δ), pRL-2MDR-TKp-TK and pcK2-5F (◯), or pcDNA3.1A and PRL-TK (□). All cells were also co-transfected with a luciferase-expressing plasmid (FIG. 4A) or a β-galactosidase-expressing plasmid (FIG. 4B) as a marker. After twenty-four hours, cells in each well were re-plated evenly into six-well plates, and in another twenty four hours, GCV was administered in varying concentrations. Luciferase (FIG. 4A) or β-galactosidase (FIG. 4B) activities were measured after four days of treatment by GCV. Results are expressed as a percentage of the enzymatic activities at 0 GCV for each set of plasmids.
as §1

Saos-2/p53- cells = experiment: Colony-formation assay with GCV in Saos-2/p53-negative cells; assay type: cell-based, human
Description: as §2, §3, §4

Compound: Nc1nc(O)c2ncn(COC(CO)CO)c2n1 [GCV, ganciclovir]
- right shift of the dose-response profile (HEK 293 cells): approximately 1 log
- effect of K2-5F-expressing plasmid on the dose-survival curve for GCV (Saos-2/p53+ cells): substantial protective effect
- IC50 (HEK 293T cells; HEK 293T cells transfected with both pRL-2MDR-TKp-TK and pcK2-5F): ~10 µM
- IC50 (HEK 293T cells; HEK 293T cells transfected with pRL-2MDR-TKp-TK alone): ~0.2 µM
- effect of K2-5F-expressing plasmid on the dose-survival curve for GCV (Saos-2/p53- cells; Saos2/p53-negative cells co-transfected with pRL-2MDR-TKp-TK, colonies after 10 days): no effect
- concentration of GCV required to attain toxicity (Saos-2/p53- cells; Saos-2 cells compared with HEK 293 cells): higher concentration
